PMC10257182, “Discovery of senolytics using machine learning” (Nature Communications, 2023)
Structures can show the parent of a compound that is named as a salt. Where two headings read alike, the source gives them in different places.

System: non-senescent control IMR90 ER:RAS cells
Test: Nuclei count (Hoechst, high content imaging) senolytic assay, OIS model, non-senescent control cells
Assay type: cell-based, human
Conditions: Homo sapiens
Text: To test for senolytic activity, we compared the effect of each compound on the total cell number (automated high content image-based analysis of total number of nuclei per well) in non-senescent and senescent IMR90 ER:RAS cultures treated with the top hits from the computational screen (Figs. 2e and 3a–d and Supplementary Fig. 4a–c). The drop in cell number compared to untreated controls is indicated by the nuclei count and reflects cell death[13],[15]. As positive control, we employed ouabain, a cardiac glycoside with well characterised senolytic activity.
We performed experimental validation of the compounds with z-score > 8 (Fig. 2e). […] We employed two cellular models of senescence: one of OIS and a second one of TIS. For the OIS case, we utilised IMR90 ER:RAS cells with 4-OHT at 100 nM. […] For the TIS model, we used A549 cells with etoposide at 100 μM. The exposure of the cells to etoposide lasted 48 h, after which period the cells were cultivated for a further three days with normal media.
IMR90 (CCL-186) human foetal lung fibroblasts and A549 (CCL-185) human lung adenocarcinoma cells were obtained from the American Type Culture Collection (ATCC, Manassas, VA). The cell lines were confirmed to be mycoplasma negative (Lonza MycoAlert, cat #LT07-118). IMR90 ER:RAS is a derivative of IMR90 cells expressing a switchable version of oncogenic H-Ras[84]. IMR90 ER:RAS and A549 cells were maintained in Dulbecco’s Modified Eagle Medium (DMEM, ThermoFisher) supplemented with foetal bovine serum (10%), L-glutamine (2 mM, ThermoFisher), and antibiotic-antimycotic solution (1%, ThermoFisher) and incubated under standard tissue culture conditions (37 °C and 5% CO2). For induction of the senescent phenotype, IMR90-ER:RAS cells were cultured in hydroxytamoxifen (4-OHT) (Sigma) added media at 100 nM final concentration. IMR90 were kept in culture for over 27 passages for replicative senescence. Cells were tested for mycoplasma on a regular basis.
Cells were seeded (50 μL per well) into 384-well plates (IMR90 ER:RAS cells in Nunc Optical Bottom Polybase Microplates [#142761, Thermo Scientific, Rochester, NY] and A549 cells in CELLSTAR Cell Culture Microplates [#781091, Greiner Bio-One, Kremsmünster, Austria]). Cells were incubated under standard tissue culture conditions for 24 h before the addition of compounds. Passage 14 IMR90 ER:RAS cells were seeded at 1300 cells per well in the control condition, and at 1600 cells per well in the senescent case. Passage 34 A549 cells were seeded at 7000 cells per well in the control condition, and at 10,000 cells per well in the senescent case.
Dose response plates were prepared with a DMSO control and a 10-point […] concentration range, and added to the compounds using a D300e digital dispenser (Tecan Trading AG, Switzerland) at a final concentration of between 10 μM and 10 nM. Every screened condition was carried out in triplicate. After 72 h of incubation with exposure to the compounds, cells were fixed by the addition of an equal volume of formaldehyde (8%, 50 μL; #BP531-500, Fisher Bioreagents, Fisher Scientific, Loughborough, Leicestershire) to the existing media, incubated at room temperature (30 min), and washed three times in phosphate-buffered saline (PBS). Cells were then permeabilised in Triton-X100 (0.1%, 50 μL) and incubated at room temperature (30 min) followed by three more washes with PBS.
Cells were stained with Hoechst 33342 for nuclei count (excitation/emission wavelength at 387/447 […], DAPI channel, original concentration at 10 mg/ml, final concentration at 2 μg/ml; H1399, Molecular Probes, Eugene, OR). The staining solution was prepared in bovine serum albumin solution (10%). The staining solution was added to each well (30 μL) and incubated in the dark at room temperature (30 min), followed by three washes with PBS and no final aspiration. Plates were foil sealed.

C[C@H](CCC(=O)NCCS(=O)(=O)O)[C@H]1CC[C@H]2[C@@H]3[C@H](O)C[C@@H]4C[C@H](O)CC[C@]4(C)[C@H]3C[C@H](O)[C@]12C [Taurocholic acid sodium, taurocholic acid sodium salt hydrate]
viability at 10 µM (IMR-90, 72 h, read-out: Mean % Cell Survival, Control, log (dose) [M] -5, 72 h, mean n=3 (Fig 3C)): 105% | viability at 4.677 µM (IMR-90, 72 h, read-out: Mean % Cell Survival, Control, log (dose) [M] -5.33, 72 h, mean n=3 (Fig 3C)): 107% | viability at 2.188 µM (IMR-90, 72 h, read-out: Mean % Cell Survival, Control, log (dose) [M] -5.66, 72 h, mean n=3 (Fig 3C)): 115% | viability at 1 µM (IMR-90, 72 h, read-out: Mean % Cell Survival, Control, log (dose) [M] -6, 72 h, mean n=3 (Fig 3C)): 108% | viability at 0.4677 µM (IMR-90, 72 h, read-out: Mean % Cell Survival, Control, log (dose) [M] -6.33, 72 h, mean n=3 (Fig 3C)): 104% | viability at 0.2188 µM (IMR-90, 72 h, read-out: Mean % Cell Survival, Control, log (dose) [M] -6.66, 72 h, mean n=3 (Fig 3C)): 95.4% | viability at 0.1 µM (IMR-90, 72 h, read-out: Mean % Cell Survival, Control, log (dose) [M] -7, 72 h, mean n=3 (Fig 3C)): 81% | viability at 0.04677 µM (IMR-90, 72 h, read-out: Mean % Cell Survival, Control, log (dose) [M] -7.33, 72 h, mean n=3 (Fig 3C)): 94.8% | viability at 0.02188 µM (IMR-90, 72 h, read-out: Mean % Cell Survival, Control, log (dose) [M] -7.66, 72 h, mean n=3 (Fig 3C)): 103% | viability at 0.01 µM (IMR-90, 72 h, read-out: Mean % Cell Survival, Control, log (dose) [M] -8, 72 h, mean n=3 (Fig 3C)): 98.6% | viability at 10 µM (IMR-90, read-out: % Cell Survival, Control cells, log (dose) [M] -5, individual replicates, SUP FIG 4C): 105% | viability at 4.677 µM (IMR-90, read-out: % Cell Survival, Control cells, log (dose) [M] -5.33, individual replicates, SUP FIG 4C): 105% | viability at 2.188 µM (IMR-90, read-out: % Cell Survival, Control cells, log (dose) [M] -5.66, individual replicates, SUP FIG 4C): 122% | viability at 0.2188 µM (IMR-90, read-out: % Cell Survival, Control cells, log (dose) [M] -6.66, individual replicates, SUP FIG 4C): 98.1% | viability at 0.02188 µM (IMR-90, read-out: % Cell Survival, Control cells, log (dose) [M] -7.66, individual replicates, SUP FIG 4C): 103% | viability at 0.01 µM (IMR-90, read-out: % Cell Survival, Control cells, log (dose) [M] -8, individual replicates, SUP FIG 4C): 95% | viability at 10 µM (IMR-90, read-out: % Cell Survival, Control, log (dose) [M] -5): 101% | viability at 4.68 µM (IMR-90, read-out: % Cell Survival, Control, log (dose) [M] -5.33): 103% | viability at 2.19 µM (IMR-90, read-out: % Cell Survival, Control, log (dose) [M] -5.66): 108% | viability at 1 µM (IMR-90, read-out: % Cell Survival, Control, log (dose) [M] -6): 99.9% | viability at 0.468 µM (IMR-90, read-out: % Cell Survival, Control, log (dose) [M] -6.33): 102% | viability at 0.219 µM (IMR-90, read-out: % Cell Survival, Control, log (dose) [M] -6.66): 100% | viability at 0.1 µM (IMR-90, read-out: % Cell Survival, Control, log (dose) [M] -7): 87.4% | viability at 0.04677 µM (IMR-90, read-out: % Cell Survival, Control, log (dose) [M] -7.33): 102% | viability at 0.0219 µM (IMR-90, read-out: % Cell Survival, Control, log (dose) [M] -7.66): 97.8% | viability at 0.01 µM (IMR-90, read-out: % Cell Survival, Control, log (dose) [M] -8): 95.8%

O=c1c(O)c(-c2ccc(O)cc2O)oc2cc(O)cc(O)c12 [Morin, morin]
viability at 10 µM (IMR-90, 72 h, Control, log (dose) [M] -5, 72 h, mean n=3 (Fig 3C), read-out: Mean % Cell Survival): 95.2% | viability at 4.677 µM (IMR-90, 72 h, Control, log (dose) [M] -5.33, 72 h, mean n=3 (Fig 3C), read-out: Mean % Cell Survival): 93.9% | viability at 2.188 µM (IMR-90, 72 h, Control, log (dose) [M] -5.66, 72 h, mean n=3 (Fig 3C), read-out: Mean % Cell Survival): 96.1% | viability at 1 µM (IMR-90, 72 h, Control, log (dose) [M] -6, 72 h, mean n=3 (Fig 3C), read-out: Mean % Cell Survival): 81.3% | viability at 0.4677 µM (IMR-90, 72 h, Control, log (dose) [M] -6.33, 72 h, mean n=3 (Fig 3C), read-out: Mean % Cell Survival): 91.6% | viability at 0.2188 µM (IMR-90, 72 h, Control, log (dose) [M] -6.66, 72 h, mean n=3 (Fig 3C), read-out: Mean % Cell Survival): 86.4% | viability at 0.1 µM (IMR-90, 72 h, Control, log (dose) [M] -7, 72 h, mean n=3 (Fig 3C), read-out: Mean % Cell Survival): 91.3% | viability at 0.04677 µM (IMR-90, 72 h, Control, log (dose) [M] -7.33, 72 h, mean n=3 (Fig 3C), read-out: Mean % Cell Survival): 86.7% | viability at 0.02188 µM (IMR-90, 72 h, Control, log (dose) [M] -7.66, 72 h, mean n=3 (Fig 3C), read-out: Mean % Cell Survival): 91.5% | viability at 0.01 µM (IMR-90, 72 h, Control, log (dose) [M] -8, 72 h, mean n=3 (Fig 3C), read-out: Mean % Cell Survival): 99.5% | viability at 10 µM (IMR-90, Control cells, log (dose) [M] -5, individual replicates, SUP FIG 4C, read-out: % Cell Survival): 88.7% | viability at 4.677 µM (IMR-90, Control cells, log (dose) [M] -5.33, individual replicates, SUP FIG 4C, read-out: % Cell Survival): 93.4% | viability at 2.188 µM (IMR-90, Control cells, log (dose) [M] -5.66, individual replicates, SUP FIG 4C, read-out: % Cell Survival): 102% | viability at 0.4677 µM (IMR-90, Control cells, log (dose) [M] -6.33, individual replicates, SUP FIG 4C, read-out: % Cell Survival): 88.8% | viability at 0.1 µM (IMR-90, Control cells, log (dose) [M] -7, individual replicates, SUP FIG 4C, read-out: % Cell Survival): 98.5% | viability at 0.01 µM (IMR-90, Control cells, log (dose) [M] -8, individual replicates, SUP FIG 4C, read-out: % Cell Survival): 103% | viability at 10 µM (IMR-90, Control, log (dose) [M] -5, read-out: % Cell Survival): 102% | viability at 2.19 µM (IMR-90, Control, log (dose) [M] -5.66, read-out: % Cell Survival): 93.3% | viability at 0.468 µM (IMR-90, Control, log (dose) [M] -6.33, read-out: % Cell Survival): 110% | viability at 0.219 µM (IMR-90, Control, log (dose) [M] -6.66, read-out: % Cell Survival): 106% | viability at 0.1 µM (IMR-90, Control, log (dose) [M] -7, read-out: % Cell Survival): 91.9% | viability at 0.0219 µM (IMR-90, Control, log (dose) [M] -7.66, read-out: % Cell Survival): 98.9% | viability at 0.01 µM (IMR-90, Control, log (dose) [M] -8, read-out: % Cell Survival): 97.2%
